Measurements published in patent publication US6204026A, “Detection of M. tuberculosis complex via reverse transcriptase SDA” (priority 1997, dated 2001).

System: M. tuberculosis
Type: cell-based, Mycobacterium tuberculosis

Row | SMILES | time of exposure within which changes in α-antigen mRNA were detected | decline in detectable α-antigen mRNA, compared with INH-treated cultures
1 | NNC(=O)c1ccncc1 [INH, Isoniazid] | ≤ 24 h | 
2 | CO[C@H]1/C=C/O[C@@]2(C)Oc3c(C)c(O)c4c(O)c(c(/C=N/N5CCN(C)CC5)c(O)c4c3C2=O)NC(=O)/C(C)=C\C=C\[C@H](C)[C@H](O)[C@@H](C)[C@@H](O)[C@@H](C)[C@H](OC(C)=O)[C@@H]1C [RIF, rifampin] | ≤ 24 h | more rapid
